The text below walks through data of paper PMC9288506, “Compounds activating VCP D1 ATPase enhance both autophagic and proteasomal neurotoxic protein clearance” (Nature Communications, 2022).

Test [1] deals with T1, VCP (p97, Valosin-containing protein) (Homo sapiens, UniProt P55072).
T1 construct: Full-length VCP (6xHis-tag)
Put plainly: SPR (also DARTS, LiP-MS, competition pulldown, ATPase activation). It counts as binding.

Another test addresses ABL1 (Homo sapiens, UniProt P00519). Put plainly: biochemical. Set-up: Thermo Fisher in vitro kinase panel, per cent inhibition of kinase activity at 10 uM. How it is done: (§1) Kinase profiling of SMER28 and analogs SMER28 and analogs were tested at 10 µM in a panel of 123 kinases at ThermoFisher Scientific. Follow-up of selected kinases for SMER28 and analogs was also performed at ThermoFisher Scientific. Data are shown in Supplementary Data 2 and 3. […] An inhibition of PIK3C could induce autophagy, mediated by signaling through the AKT/mTOR axis[45].

The target of another test is CSNK1G1 (CK1 gamma 1) (Homo sapiens, UniProt Q9HCP0). Briefly: biochemical. Set-up: Thermo Fisher in vitro kinase panel, per cent inhibition of kinase activity at 10 uM. How it is done: as §1
For another test, the target named is RPS6KA1 (RSK1) (Homo sapiens, UniProt Q15418). Briefly: biochemical. Set-up: Thermo Fisher in vitro kinase panel, per cent inhibition of kinase activity at 10 uM. The method, then: as §1
Another test addresses BMX (Homo sapiens, UniProt P51813). Put plainly: biochemical. Set-up: Thermo Fisher in vitro kinase panel, per cent inhibition of kinase activity at 10 uM. How it is done: as §1
The target of test [2] is PIK3CA/PIK3R1 (p110 alpha/p85 alpha) (Homo sapiens, UniProt P42336). Put plainly: biochemical. Set-up: Thermo Fisher in vitro kinase panel, per cent inhibition of kinase activity at 10 uM. How it is done:
as §1

The target of a further test is MARK1 (MARK) (Homo sapiens, UniProt Q9P0L2). Put plainly: biochemical. Set-up: Thermo Fisher in vitro kinase panel, per cent inhibition of kinase activity at 10 uM. How it is done:
as §1

A further test has as its target NTRK1 (TRKA) (Homo sapiens, UniProt P04629). Put plainly: biochemical. Set-up: Thermo Fisher in vitro kinase panel, per cent inhibition of kinase activity at 10 uM. How it is done:
as §1

Another test has as its target CHEK1 (CHK1) (Homo sapiens, UniProt O14757). Briefly: biochemical. Set-up: Thermo Fisher in vitro kinase panel, per cent inhibition of kinase activity at 10 uM. How it is done:
as §1

A further test deals with ROCK1 (Homo sapiens, UniProt Q13464). Put plainly: biochemical. Set-up: Thermo Fisher in vitro kinase panel, per cent inhibition of kinase activity at 10 uM. The method, then:
as §1

In a further test the target is MAP3K9 (MLK1) (Homo sapiens, UniProt P80192). Put plainly: biochemical. Set-up: Thermo Fisher in vitro kinase panel, per cent inhibition of kinase activity at 10 uM. The method, then: as §1
For a further test, the target named is MET (cMet) (Homo sapiens, UniProt P08581). Put plainly: biochemical. Set-up: Thermo Fisher in vitro kinase panel, per cent inhibition of kinase activity at 10 uM. The method, then:
as §1

The target in the next test is AURKB (Aurora B) (Homo sapiens, UniProt Q96GD4). Briefly: biochemical. Set-up: Thermo Fisher in vitro kinase panel, per cent inhibition of kinase activity at 10 uM. How it is done:
as §1

In another test the target is PAK2 (PAK65) (Homo sapiens, UniProt Q13177). Put plainly: biochemical. Set-up: Thermo Fisher in vitro kinase panel, per cent inhibition of kinase activity at 10 uM. The method, then: as §1
A further test has as its target STK4 (MST1) (Homo sapiens, UniProt Q13043). Put plainly: biochemical. Set-up: Thermo Fisher in vitro kinase panel, per cent inhibition of kinase activity at 10 uM. The method, then: as §1
The target in another test is DDR2 (Homo sapiens, UniProt Q16832). Put plainly: biochemical. Set-up: Thermo Fisher in vitro kinase panel, per cent inhibition of kinase activity at 10 uM. How it is done: as §1
The target in the next test is FGFR2 (Homo sapiens, UniProt P21802). Briefly: biochemical. Set-up: Thermo Fisher in vitro kinase panel, per cent inhibition of kinase activity at 10 uM. How it is done:
as §1

Another test concerns the target KDR (VEGFR2) (Homo sapiens, UniProt P35968). Put plainly: biochemical. Set-up: Thermo Fisher in vitro kinase panel, per cent inhibition of kinase activity at 10 uM. How it is done: as §1
A further test deals with CAMK2B (CaMKII beta) (Homo sapiens, UniProt Q13554). Briefly: biochemical. Set-up: Thermo Fisher in vitro kinase panel, per cent inhibition of kinase activity at 10 uM. How it is done: as §1
Sequence of CAMK2B (CaMKII beta) (Q13554 whole entry): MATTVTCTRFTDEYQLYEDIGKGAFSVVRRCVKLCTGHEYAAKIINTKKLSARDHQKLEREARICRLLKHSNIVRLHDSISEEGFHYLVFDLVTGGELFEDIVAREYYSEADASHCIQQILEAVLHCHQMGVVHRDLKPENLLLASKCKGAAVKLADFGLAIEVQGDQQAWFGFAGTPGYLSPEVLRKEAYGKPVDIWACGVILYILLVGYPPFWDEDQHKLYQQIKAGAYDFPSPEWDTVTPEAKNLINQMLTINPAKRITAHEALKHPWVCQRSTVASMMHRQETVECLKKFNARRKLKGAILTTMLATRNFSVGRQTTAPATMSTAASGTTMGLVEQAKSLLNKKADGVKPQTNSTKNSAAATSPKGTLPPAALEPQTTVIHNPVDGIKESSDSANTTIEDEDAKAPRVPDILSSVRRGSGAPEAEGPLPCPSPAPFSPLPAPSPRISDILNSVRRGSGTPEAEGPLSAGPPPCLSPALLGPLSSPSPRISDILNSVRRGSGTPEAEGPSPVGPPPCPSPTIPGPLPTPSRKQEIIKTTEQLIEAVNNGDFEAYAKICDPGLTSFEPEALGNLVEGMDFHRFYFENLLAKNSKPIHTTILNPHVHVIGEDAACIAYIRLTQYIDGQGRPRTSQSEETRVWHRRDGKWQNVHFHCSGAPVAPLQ
Another test deals with SRC (Homo sapiens, UniProt P12931). Briefly: biochemical. Set-up: Thermo Fisher in vitro kinase panel, per cent inhibition of kinase activity at 10 uM. How it is done: as §1
Sequence of SRC (P12931 whole entry): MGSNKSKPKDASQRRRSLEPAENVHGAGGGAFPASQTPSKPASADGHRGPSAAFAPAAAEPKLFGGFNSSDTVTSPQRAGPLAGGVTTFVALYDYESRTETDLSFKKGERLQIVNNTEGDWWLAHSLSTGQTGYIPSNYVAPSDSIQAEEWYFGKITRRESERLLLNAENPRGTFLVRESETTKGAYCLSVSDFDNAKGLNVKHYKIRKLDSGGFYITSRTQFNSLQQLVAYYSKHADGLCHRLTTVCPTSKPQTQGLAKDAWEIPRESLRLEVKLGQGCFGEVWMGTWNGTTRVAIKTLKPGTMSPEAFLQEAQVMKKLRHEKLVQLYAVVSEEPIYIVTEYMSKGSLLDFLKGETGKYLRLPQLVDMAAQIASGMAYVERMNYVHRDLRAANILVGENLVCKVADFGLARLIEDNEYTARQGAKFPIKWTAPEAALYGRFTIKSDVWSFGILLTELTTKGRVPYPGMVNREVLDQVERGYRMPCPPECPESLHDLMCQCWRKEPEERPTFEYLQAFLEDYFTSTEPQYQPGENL
Another test has as its target FGFR1 V561M (Homo sapiens, UniProt P11362, V561M). Put plainly: biochemical. Set-up: Thermo Fisher in vitro kinase panel, per cent inhibition of kinase activity at 10 uM. How it is done: as §1
The target in another test is PAK4 (Homo sapiens, UniProt O96013). Briefly: biochemical. Set-up: Thermo Fisher in vitro kinase panel, per cent inhibition of kinase activity at 10 uM. How it is done:
as §1

In test [3] the target is T2, MAPK14 (p38 alpha) Direct (Homo sapiens, UniProt Q16539).
T2 construct: Direct
Put plainly: biochemical. Set-up: Thermo Fisher in vitro kinase panel, per cent inhibition of kinase activity at 10 uM. How it is done: as §1

Another test addresses DMPK (Homo sapiens, UniProt Q09013). Put plainly: biochemical. Set-up: Thermo Fisher in vitro kinase panel, per cent inhibition of kinase activity at 10 uM. The method, then: as §1

Sequence of PIK3CA/PIK3R1 (p110 alpha/p85 alpha) (P42336 whole entry): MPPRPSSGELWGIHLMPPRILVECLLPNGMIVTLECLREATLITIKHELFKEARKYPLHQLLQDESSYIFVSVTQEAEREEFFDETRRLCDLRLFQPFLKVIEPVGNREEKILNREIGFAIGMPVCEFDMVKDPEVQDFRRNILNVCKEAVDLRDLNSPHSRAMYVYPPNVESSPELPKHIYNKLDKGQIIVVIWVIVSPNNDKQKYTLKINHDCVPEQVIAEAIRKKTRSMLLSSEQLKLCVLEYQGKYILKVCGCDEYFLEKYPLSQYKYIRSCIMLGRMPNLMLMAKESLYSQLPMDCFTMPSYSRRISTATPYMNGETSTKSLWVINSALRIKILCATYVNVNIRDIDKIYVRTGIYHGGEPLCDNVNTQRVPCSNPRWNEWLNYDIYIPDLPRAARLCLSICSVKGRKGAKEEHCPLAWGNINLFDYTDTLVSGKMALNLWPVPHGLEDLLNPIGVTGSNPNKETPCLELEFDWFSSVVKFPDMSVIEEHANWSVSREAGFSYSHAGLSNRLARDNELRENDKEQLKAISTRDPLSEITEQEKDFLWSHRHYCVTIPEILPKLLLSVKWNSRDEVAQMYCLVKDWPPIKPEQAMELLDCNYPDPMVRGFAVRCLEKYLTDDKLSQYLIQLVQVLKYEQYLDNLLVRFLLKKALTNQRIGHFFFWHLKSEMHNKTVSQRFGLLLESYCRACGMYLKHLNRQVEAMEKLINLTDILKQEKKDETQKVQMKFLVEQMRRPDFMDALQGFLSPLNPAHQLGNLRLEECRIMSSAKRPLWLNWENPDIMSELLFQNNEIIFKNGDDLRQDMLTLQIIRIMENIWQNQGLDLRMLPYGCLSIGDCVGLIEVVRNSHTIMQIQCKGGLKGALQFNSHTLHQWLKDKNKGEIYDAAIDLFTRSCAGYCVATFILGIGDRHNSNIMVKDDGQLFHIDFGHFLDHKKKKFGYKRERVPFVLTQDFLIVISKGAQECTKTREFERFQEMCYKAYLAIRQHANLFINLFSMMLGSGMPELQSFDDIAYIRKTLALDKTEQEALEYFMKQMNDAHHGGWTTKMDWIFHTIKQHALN
Sequence of PIK3CA/PIK3R1 (p110 alpha/p85 alpha) (P27986 whole entry partner): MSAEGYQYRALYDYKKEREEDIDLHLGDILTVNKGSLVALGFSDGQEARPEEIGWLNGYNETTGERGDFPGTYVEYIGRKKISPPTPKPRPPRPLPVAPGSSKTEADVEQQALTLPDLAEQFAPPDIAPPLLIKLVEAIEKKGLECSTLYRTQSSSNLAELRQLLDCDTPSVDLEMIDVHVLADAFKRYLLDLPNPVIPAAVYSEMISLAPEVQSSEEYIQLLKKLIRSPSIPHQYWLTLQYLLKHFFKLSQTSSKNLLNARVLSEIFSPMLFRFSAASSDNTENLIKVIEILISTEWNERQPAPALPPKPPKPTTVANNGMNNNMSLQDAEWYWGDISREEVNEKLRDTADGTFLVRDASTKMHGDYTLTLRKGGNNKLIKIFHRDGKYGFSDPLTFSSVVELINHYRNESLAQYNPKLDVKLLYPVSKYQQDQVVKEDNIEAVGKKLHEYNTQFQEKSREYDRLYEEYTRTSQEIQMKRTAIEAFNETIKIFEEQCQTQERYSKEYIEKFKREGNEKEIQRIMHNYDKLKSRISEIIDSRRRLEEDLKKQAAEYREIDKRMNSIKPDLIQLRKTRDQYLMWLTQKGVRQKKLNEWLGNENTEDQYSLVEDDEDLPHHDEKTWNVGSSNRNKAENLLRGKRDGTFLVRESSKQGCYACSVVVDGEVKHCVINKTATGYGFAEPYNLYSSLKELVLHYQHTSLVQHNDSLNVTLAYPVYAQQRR
Sequence of STK4 (MST1) (Q13043 whole entry): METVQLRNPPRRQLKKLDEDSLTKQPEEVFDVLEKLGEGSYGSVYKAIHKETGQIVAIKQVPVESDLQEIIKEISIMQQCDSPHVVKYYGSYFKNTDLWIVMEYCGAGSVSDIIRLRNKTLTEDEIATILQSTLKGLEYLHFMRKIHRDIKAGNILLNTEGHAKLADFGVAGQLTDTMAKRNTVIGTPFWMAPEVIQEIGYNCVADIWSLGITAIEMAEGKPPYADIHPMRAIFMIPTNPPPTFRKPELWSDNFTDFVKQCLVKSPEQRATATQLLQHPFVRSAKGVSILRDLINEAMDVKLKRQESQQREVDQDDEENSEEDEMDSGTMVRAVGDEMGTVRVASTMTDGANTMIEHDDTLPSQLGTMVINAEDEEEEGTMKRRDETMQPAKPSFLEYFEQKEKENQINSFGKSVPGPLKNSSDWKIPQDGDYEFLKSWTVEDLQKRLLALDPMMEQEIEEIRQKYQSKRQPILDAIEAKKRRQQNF
Sequence of FGFR2 (P21802 whole entry): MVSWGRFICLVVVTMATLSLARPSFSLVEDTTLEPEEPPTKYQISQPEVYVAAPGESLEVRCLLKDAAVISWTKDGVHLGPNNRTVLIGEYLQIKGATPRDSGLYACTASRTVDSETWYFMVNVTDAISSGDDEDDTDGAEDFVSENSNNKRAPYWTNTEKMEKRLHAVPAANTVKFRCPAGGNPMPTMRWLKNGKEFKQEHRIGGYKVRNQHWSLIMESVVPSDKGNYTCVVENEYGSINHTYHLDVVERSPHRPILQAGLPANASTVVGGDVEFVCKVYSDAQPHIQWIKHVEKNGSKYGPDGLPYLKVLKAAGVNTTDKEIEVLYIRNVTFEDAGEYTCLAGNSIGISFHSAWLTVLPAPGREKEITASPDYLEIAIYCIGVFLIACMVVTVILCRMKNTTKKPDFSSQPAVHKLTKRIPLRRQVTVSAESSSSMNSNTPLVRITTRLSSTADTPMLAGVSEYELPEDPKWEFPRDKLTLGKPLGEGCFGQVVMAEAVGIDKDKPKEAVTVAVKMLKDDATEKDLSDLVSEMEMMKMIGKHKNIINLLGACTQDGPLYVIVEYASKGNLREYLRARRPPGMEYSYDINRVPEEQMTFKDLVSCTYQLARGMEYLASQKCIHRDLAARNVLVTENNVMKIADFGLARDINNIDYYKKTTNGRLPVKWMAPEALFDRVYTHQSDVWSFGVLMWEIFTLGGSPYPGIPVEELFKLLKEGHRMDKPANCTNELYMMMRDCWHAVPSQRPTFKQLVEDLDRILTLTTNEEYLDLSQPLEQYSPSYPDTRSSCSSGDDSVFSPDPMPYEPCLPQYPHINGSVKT
Sequence of CHEK1 (CHK1) (O14757 whole entry): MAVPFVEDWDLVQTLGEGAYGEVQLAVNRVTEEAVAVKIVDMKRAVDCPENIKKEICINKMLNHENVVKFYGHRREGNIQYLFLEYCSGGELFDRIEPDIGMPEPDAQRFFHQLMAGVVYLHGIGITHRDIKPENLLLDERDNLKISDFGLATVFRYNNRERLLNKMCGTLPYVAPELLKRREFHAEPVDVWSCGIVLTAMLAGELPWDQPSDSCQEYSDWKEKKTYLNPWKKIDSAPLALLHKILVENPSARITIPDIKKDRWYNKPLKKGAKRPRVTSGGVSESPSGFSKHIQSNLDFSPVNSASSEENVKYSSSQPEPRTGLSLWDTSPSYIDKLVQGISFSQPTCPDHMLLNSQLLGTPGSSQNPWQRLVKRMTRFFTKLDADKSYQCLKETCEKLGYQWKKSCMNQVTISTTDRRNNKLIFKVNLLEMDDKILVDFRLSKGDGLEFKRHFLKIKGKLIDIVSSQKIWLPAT

A word on the Kd: it is the constant that tells how readily two partners part at equilibrium. A lower Kd goes with higher affinity. What is called inhibition is the drop in the measured response relative to a control, in per cent. Compound `C=CCNc1ncnc2ccc(Br)cc12` [SMER28] gave a Kd in [1] of approximately 750 nM. In addition, the inhibition at 10 µM on ABL1 stood at 11%; at CSNK1G1 (CK1 gamma 1), 31%; against RPS6KA1 (RSK1), 21%; against BMX, 11%; in test [2], 78%; at MARK1 (MARK) it was 11%. Moreover, the inhibition at 10 µM was 33% on NTRK1 (TRKA); -8% against CHEK1 (CHK1); -13% at ROCK1; -2% at MAP3K9 (MLK1); 8% against MET (cMet); 18% on AURKB (Aurora B). For the same compound, the inhibition at 10 µM came out at 9% against PAK2 (PAK65); 11% against STK4 (MST1); 0% on DDR2; 19% on FGFR2; 13% at KDR (VEGFR2); 4% at CAMK2B (CaMKII beta). For the same compound, the inhibition at 10 µM was 2% at SRC; 9% on FGFR1 V561M; 0% at PAK4; 7% in [3]; 57% on DMPK.
